Test results as given in ChEMBL document CHEMBL4184177, “Synthesis and bioevaluation study of novel N-methylpicolinamide and thienopyrimidine derivatives as selectivity c-Met kinase inhibitors” (Bioorg Med Chem, 2018).
pIC50: −log10 of the molar value.

Tests used:
MCF7 = experiment: cells; settings: Homo sapiens, MCF7, 72 h
Description: Cytotoxicity against human MCF7 cells after 72 hrs by MTT assay

A549 = experiment: Cytotoxicity against human A549 cells after 72 hrs by MTT assay; settings: A549, 72 h
HepG2 = experiment: cells; settings: Homo sapiens, HepG2, 72 h
Description: Cytotoxicity against human HepG2 cells after 72 hrs by MTT assay

[1] = target: Hepatocyte growth factor receptor (Homo sapiens, UniProt P08581); experiment: Inhibition of c-Met (unknown origin) using FAM-labeled peptide substrate after 10 mins by mobility shift assay
Sequence of Hepatocyte growth factor receptor (P08581 whole entry): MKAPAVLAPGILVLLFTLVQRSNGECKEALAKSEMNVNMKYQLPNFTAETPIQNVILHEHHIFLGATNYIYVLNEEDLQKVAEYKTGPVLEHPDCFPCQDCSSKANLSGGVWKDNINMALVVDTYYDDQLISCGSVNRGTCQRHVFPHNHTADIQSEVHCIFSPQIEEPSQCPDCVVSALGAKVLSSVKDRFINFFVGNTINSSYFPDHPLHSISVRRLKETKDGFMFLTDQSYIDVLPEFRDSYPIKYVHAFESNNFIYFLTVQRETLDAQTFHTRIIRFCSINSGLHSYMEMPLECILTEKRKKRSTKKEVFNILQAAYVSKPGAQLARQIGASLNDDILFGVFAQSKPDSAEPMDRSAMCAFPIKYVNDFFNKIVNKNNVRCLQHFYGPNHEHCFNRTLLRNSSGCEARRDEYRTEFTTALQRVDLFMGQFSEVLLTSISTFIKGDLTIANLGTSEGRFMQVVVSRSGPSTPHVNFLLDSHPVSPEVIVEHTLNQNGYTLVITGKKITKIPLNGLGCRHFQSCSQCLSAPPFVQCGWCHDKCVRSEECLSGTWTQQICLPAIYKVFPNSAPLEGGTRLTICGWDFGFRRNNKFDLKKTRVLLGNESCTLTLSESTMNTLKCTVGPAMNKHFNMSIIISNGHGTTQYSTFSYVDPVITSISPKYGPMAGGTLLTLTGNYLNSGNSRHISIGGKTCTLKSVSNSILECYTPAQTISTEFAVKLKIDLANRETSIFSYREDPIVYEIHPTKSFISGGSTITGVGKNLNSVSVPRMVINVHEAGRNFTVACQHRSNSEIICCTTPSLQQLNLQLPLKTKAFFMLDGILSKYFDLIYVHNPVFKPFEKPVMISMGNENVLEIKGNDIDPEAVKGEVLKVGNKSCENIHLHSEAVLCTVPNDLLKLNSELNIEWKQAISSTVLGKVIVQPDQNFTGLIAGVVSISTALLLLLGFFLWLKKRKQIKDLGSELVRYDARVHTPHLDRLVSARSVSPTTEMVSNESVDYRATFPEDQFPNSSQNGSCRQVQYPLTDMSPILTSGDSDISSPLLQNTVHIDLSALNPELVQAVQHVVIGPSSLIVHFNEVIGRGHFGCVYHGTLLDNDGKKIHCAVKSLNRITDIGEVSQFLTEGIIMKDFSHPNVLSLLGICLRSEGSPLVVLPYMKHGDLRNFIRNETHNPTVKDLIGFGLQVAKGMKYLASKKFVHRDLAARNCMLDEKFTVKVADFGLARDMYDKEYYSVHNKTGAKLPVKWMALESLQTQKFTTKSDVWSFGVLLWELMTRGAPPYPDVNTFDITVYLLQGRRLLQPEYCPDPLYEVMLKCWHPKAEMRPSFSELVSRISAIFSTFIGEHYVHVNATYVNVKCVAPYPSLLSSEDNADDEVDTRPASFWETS

Structure (SMILES) | pIC50 (MCF7) | pIC50 (A549) | pIC50 (HepG2) | pIC50 [1]
CNC(=O)c1cc(Oc2ccc(NC(=O)c3nn(-c4ccccc4F)c(=O)cc3C)cc2F)ccn1 | < 4.40 | < 4.40 | < 4.40 | 
Cc1cc(=O)n(-c2ccc(F)c(F)c2)nc1C(=O)Nc1ccc(Oc2ncnc3ccsc23)c(F)c1 | 5.16 | 5.34 | 5.16 | 
Cc1cc(=O)n(-c2ccc(F)cc2)nc1C(=O)Nc1ccc(Oc2ncnc3ccsc23)cc1 | 5.36 | 5.63 | 5.68 | 7.32
O=C(Nc1ccc(Oc2ncnc3ccsc23)c(F)c1)c1nn(-c2ccc(Br)cc2)ccc1=O | 5.02 | 5.11 | 4.97 | 
Cc1cc(=O)n(-c2ccc(F)cc2)nc1C(=O)Nc1ccc(Oc2ncnc3sccc23)cc1 | 4.68 | 5.15 | 5.19 | 
CNC(=O)c1cc(Oc2ccc(NC(=O)c3nn(-c4cccc(F)c4)c(=O)cc3C)cc2F)ccn1 | 5.19 | 5.02 | 4.99 | 
Cc1cc(=O)n(-c2ccc(Br)cc2F)nc1C(=O)Nc1ccc(Oc2ncnc3sccc23)c(F)c1 | 4.88 | 4.94 | 4.86 | 
Cc1cc(=O)n(-c2cccc(F)c2)nc1C(=O)Nc1ccc(Oc2ncnc3ccsc23)c(F)c1 | 5.04 | 5.28 | 5.11 | 
CNC(=O)c1cc(Oc2ccc(NC(=O)c3nn(-c4ccc(C)cc4)c(=O)cc3C)cc2F)ccn1 | 5.08 | 4.94 | 4.97 | 
Cc1cc(=O)n(-c2ccccc2C(F)(F)F)nc1C(=O)Nc1ccc(Oc2ncnc3sccc23)cc1 | < 4.40 | 4.70 | < 4.40 | 
Cc1cc(=O)n(-c2ccc(Br)cc2F)nc1C(=O)Nc1ccc(Oc2ncnc3ccsc23)cc1 | 5.03 | 5.10 | 4.97 | 
CNC(=O)c1cc(Oc2ccc(NC(=O)c3nn(-c4ccc(Br)cc4F)c(=O)cc3C)cc2F)ccn1 | 5.03 | 5.10 | 5.55 | 
Cc1cc(=O)n(-c2ccccc2OC(F)(F)F)nc1C(=O)Nc1ccc(Oc2ncnc3ccsc23)c(F)c1 | 4.94 | 5.24 | 4.81 | 
Cc1ccc(-n2nc(C(=O)Nc3ccc(Oc4ncnc5ccsc45)c(F)c3)c(C)cc2=O)cc1 | 5.14 | 5.23 | 4.76 | 
Cc1cc(=O)n(-c2ccccc2OC(F)(F)F)nc1C(=O)Nc1ccc(Oc2ncnc3sccc23)cc1 | 4.96 | 4.81 | 4.84 | 
O=C(Nc1ccc(Oc2ncnc3ccsc23)c(F)c1)c1nn(-c2ccc(F)cc2)ccc1=O | 5.24 | 5.08 | 5.04 | 
Cc1cc(=O)n(-c2cccc(F)c2)nc1C(=O)Nc1ccc(Oc2ncnc3sccc23)cc1 | 4.57 | 4.79 | 4.73 | 
Cc1cc(=O)n(-c2ccccc2OC(F)(F)F)nc1C(=O)Nc1ccc(Oc2ncnc3sccc23)c(F)c1 | < 4.40 | < 4.40 | < 4.40 | 
O=C(Nc1ccc(Oc2ncnc3ccsc23)c(F)c1)c1nn(-c2ccccc2)ccc1=O | 4.91 | 4.70 | 4.87 | 
CNC(=O)c1cc(Oc2ccc(NC(=O)c3nn(-c4ccccc4OC(F)(F)F)c(=O)cc3C)cc2F)ccn1 | < 4.40 | < 4.40 | < 4.40 | 

Structure (SMILES) | pIC50 (MCF7) | pIC50 (A549) | pIC50 (HepG2) | pIC50 [1]
Cc1ccc(-n2nc(C(=O)Nc3ccc(Oc4ncnc5sccc45)cc3)c(C)cc2=O)cc1 | < 4.40 | < 4.40 | < 4.40 | 
O=C(Nc1ccc(Oc2ncnc3ccsc23)c(F)c1)c1nn(-c2ccc(F)c(Cl)c2)ccc1=O | 5.18 | 5.02 | 4.97 | 
CNC(=O)c1cc(Oc2ccc(NC(=O)c3nn(-c4ccccc4C(F)(F)F)c(=O)cc3C)cc2F)ccn1 | 4.45 | < 4.40 | < 4.40 | 
Cc1cc(=O)n(-c2ccccc2OC(F)(F)F)nc1C(=O)Nc1ccc(Oc2ncnc3ccsc23)cc1 | 4.62 | 4.99 | 4.60 | 
Cc1ccc(-n2ccc(=O)c(C(=O)Nc3ccc(Oc4ncnc5ccsc45)c(F)c3)n2)cc1 | 4.64 | 4.93 | 4.62 | 
Cc1cc(=O)n(-c2ccc(F)c(F)c2)nc1C(=O)Nc1ccc(Oc2ncnc3sccc23)c(F)c1 | 4.69 | 4.80 | < 4.40 | 
Cc1cc(=O)n(-c2ccc(Br)cc2F)nc1C(=O)Nc1ccc(Oc2ncnc3sccc23)cc1 | 4.82 | 4.89 | 5.20 | 
Cc1ccc(-n2nc(C(=O)Nc3ccc(Oc4ncnc5ccsc45)cc3)c(C)cc2=O)c(C)c1 | 4.92 | 4.79 | 4.75 | 
Cc1cc(=O)n(-c2ccc(Br)cc2F)nc1C(=O)Nc1ccc(Oc2ncnc3ccsc23)c(F)c1 | 5.81 | 5.53 | 5.47 | 7.49
Cc1cc(=O)n(-c2ccc(F)cc2)nc1C(=O)Nc1ccc(Oc2ncnc3sccc23)c(F)c1 | 4.91 | 5.58 | 4.90 | 
Cc1cc(=O)n(-c2cccc(F)c2)nc1C(=O)Nc1ccc(Oc2ncnc3ccsc23)cc1 | 5.19 | 5.02 | 4.99 | 
Cc1cc(=O)n(-c2ccc(F)c(F)c2)nc1C(=O)Nc1ccc(Oc2ncnc3ccsc23)cc1 | 5.26 | 5.09 | 5.03 | 
Cc1ccc(-n2nc(C(=O)Nc3ccc(Oc4ncnc5ccsc45)cc3)c(C)cc2=O)cc1 | 4.62 | 4.94 | 4.60 | 
Cc1cc(=O)n(-c2ccccc2C(F)(F)F)nc1C(=O)Nc1ccc(Oc2ncnc3sccc23)c(F)c1 | 4.86 | 4.79 | 4.83 | 
Cc1cc(=O)n(-c2cccc(F)c2)nc1C(=O)Nc1ccc(Oc2ncnc3sccc23)c(F)c1 | 4.76 | 4.71 | 4.61 | 
Cc1cc(=O)n(-c2ccccc2C(F)(F)F)nc1C(=O)Nc1ccc(Oc2ncnc3ccsc23)c(F)c1 | 5.22 | 5.33 | 5.03 | 
Cc1cc(=O)n(-c2ccc(F)c(F)c2)nc1C(=O)Nc1ccc(Oc2ncnc3sccc23)cc1 | 4.79 | 4.87 | 4.78 | 
Cc1ccc(-n2nc(C(=O)Nc3ccc(Oc4ncnc5sccc45)c(F)c3)c(C)cc2=O)cc1 | < 4.40 | < 4.40 | < 4.40 | 
Cc1cc(=O)n(-c2ccccc2C(F)(F)F)nc1C(=O)Nc1ccc(Oc2ncnc3ccsc23)cc1 | 5.26 | 5.05 | 5.03 | 
